According to patent publication US9822130B2, “Triazolo-pyrazinyl derivatives useful as soluble guanylate cyclase activators” (Merck Sharp & Dohme Corp., priority 2014, dated 2017):

Target: T1, sGC α1/β1 heterodimer stably expressed in CHO-K1 cell line (CHO-K1/sGC) (Homo sapiens, UniProt Q02108+Q02153)
T1 construct: expressed in transfected cells
T1 sequence (Q02108 1-690): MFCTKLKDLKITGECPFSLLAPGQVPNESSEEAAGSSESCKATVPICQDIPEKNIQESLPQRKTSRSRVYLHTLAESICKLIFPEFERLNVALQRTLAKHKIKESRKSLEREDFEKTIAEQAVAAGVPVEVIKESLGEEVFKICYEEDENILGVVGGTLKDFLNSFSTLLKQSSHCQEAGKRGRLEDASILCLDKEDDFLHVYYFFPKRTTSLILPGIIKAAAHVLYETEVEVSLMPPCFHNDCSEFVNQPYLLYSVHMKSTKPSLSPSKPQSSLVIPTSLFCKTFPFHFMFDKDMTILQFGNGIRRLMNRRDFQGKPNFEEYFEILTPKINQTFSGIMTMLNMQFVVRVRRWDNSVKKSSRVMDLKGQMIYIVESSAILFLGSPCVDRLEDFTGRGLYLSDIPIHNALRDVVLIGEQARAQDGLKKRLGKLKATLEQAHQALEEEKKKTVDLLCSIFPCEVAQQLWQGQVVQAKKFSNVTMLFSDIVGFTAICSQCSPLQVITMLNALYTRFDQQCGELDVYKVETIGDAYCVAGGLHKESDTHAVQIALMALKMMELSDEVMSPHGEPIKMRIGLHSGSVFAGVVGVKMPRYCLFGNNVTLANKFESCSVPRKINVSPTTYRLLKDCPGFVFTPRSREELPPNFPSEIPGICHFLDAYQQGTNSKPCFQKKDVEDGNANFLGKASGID
T1 sequence (Q02153 1-619): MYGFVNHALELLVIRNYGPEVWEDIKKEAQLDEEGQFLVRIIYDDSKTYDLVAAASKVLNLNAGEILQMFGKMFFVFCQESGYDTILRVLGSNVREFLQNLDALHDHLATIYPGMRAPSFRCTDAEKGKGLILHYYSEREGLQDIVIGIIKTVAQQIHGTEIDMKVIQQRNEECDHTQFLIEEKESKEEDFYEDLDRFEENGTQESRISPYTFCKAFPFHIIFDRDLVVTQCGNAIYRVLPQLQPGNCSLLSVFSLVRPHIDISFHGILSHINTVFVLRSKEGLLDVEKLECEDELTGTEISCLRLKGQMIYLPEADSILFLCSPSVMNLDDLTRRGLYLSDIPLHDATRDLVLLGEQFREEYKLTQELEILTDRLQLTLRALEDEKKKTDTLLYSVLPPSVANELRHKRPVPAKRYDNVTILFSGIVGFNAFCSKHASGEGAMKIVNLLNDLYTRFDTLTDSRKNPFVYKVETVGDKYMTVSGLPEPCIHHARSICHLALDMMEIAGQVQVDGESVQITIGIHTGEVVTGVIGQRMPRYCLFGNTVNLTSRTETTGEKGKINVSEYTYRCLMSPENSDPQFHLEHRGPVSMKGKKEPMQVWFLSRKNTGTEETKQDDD
Experiment: Cell-based sGC Functional Assay (CASA Assay), cGMP generation
Details: CHO-K1/sGC cells, 1 hr at 37° C., cGMP by HTRF, presence or absence of 1 μM DETA-NO not given; for EC50: 4P fit, read-out: IP (nM) (inflection point)
Text: sGC is a heme-containing enzyme that converts GTP to secondary messenger cGMP. Increases in cGMP levels affect several physiological processes including vasorelaxation through multiple downstream pathways. […] Heme-dependent activators (HDAs) preferentially activate sGC containing a ferrous heme group. To determine the effect of sGC activators on enzyme activity, the CASA assay was developed to monitor the generation of cGMP in a cell line that stably expresses the heterodimeric sGC protein.
A CHO-K1 cell line stably expressing the sGC α1/β1 heterodimer was generated using a standard transfection protocol. CHO-K1 cells were transfected with plasmids pIREShyghsGCα1 and pIRESneo-hsGCβ1 simultaneously using FUGENE reagent. Clones that stably express both subunits were selected with hygromycin and neomycin for ˜2 weeks. Clone #7 was chosen for the assay and was designated CHO-K1/sGC. CHO-K1/sGC cells were maintained in F-K12 medium containing 10% heat-inactivated Fetal Bovine Serum (FBS), 100 μg/mL penicillin/streptomycin, 0.5 mg/mL hygromycin and 0.25 mg/mL G418. The cells were then cryopreserved in LN2. On the day of the assay, cells thawed and resuspended in EBSS Assay Buffer (Sigma, E3024) supplemented with 5 mM MgCl2, 10 mM HEPES (4-(2-hydroxyethyl)piperazine-1-ethanesulfonic acid) and 0.05% BSA (bovine serum albumin) (EAB) and cell density was then adjusted to 4×10^5/mL with EAB, IBMX (3-isobutyl-1-methylxanthin, 0.5 mM) was added to inhibit degradation of cGMP. Compounds were diluted from DMSO stock solutions and added to the assay at a final DMSO concentration of 2.5%. Cells were incubated with compounds in the presence and absence of 1 μM of Diethylenetriamine/nitric oxide adduct (DETA-NO; Sigma, 17018) for 1 hr at 37° C. At the end of the incubation period, the reaction was terminated and the cells were lysed with the detection reagents from Cisbio Kits. The level of intracellular cGMP was determined using an HTRF-based assay kit (CisBio, 62GM2PEC), which detects the displacement of a fluorescence labeled cGMP from its specific antibody. The cGMP produced by test compounds was directly compared to the maximum cGMP production (this value was set to equal 100% activation.) of the published sGC-HDA Compound A:
[drawing 300] (Example 1 in WO 2010/065275, published Jun. 10, 2010). The test compounds' activities were then expressed as a percentage of Compound A, the standard in every experiment. This percent activation was calculated either in the presence or absence of DETA-NO which was then plotted. IP and maximum fold induction was derived using ADA analysis software for 4P fit.
The compounds in the Examples of the instant invention had inflection points (IP) less than or equal to 10 μM and more particularly less than or equal to about 1 μM.

SMILES	EC50 [nM]	Emax (read-out: % Act. (percent activation relative to maximum cGMP production of Compound A = 100%)) [%]
Nc1nc(-c2cn3ncnc3c(CCC(F)(F)C(F)(F)F)n2)nc2c1C(c1cncc(F)c1)(C1CC1)C(=O)N2 (centres unmarked) [Example 8B, 4-amino-5-cyclopropyl-5-(5-fluoropyridin-3-yl)-2-(8-(3,3,4,4,4-pentafluorobutyl)-[1,2,4]triazolo[1,5-a]pyrazin-6-yl)-5H-pyrrolo[2,3-d]pyrimidin-6(7H)-one]	294	–
CC1(c2cccc(F)c2)C(=O)Nc2nc(-c3cn4ncnc4c(CCC(F)(F)C(F)(F)F)n3)nc(N)c21 (centres unmarked) [Example 14B, 4-amino-5-(3-fluorophenyl)-5-methyl-2 (8-(3,3,4,4,4-pentafluorobutyl)-[1,2,4]triazolo[1,5-a]pyrazin-6-yl)-5H-pyrrolo[2,3-d]pyrimidin-6(7H)-one]	5.5	90
Cc1ccc(C2(C)C(=O)Nc3nc(-c4cn5ncnc5c(CCC(F)(F)C(F)(F)F)n4)nc(N)c32)nc1 (centres unmarked) [Example 19B, 4-amino-5-methyl-5-(5-methylpyridin-2-yl)-2-(8-(3,3,4,4,4-pentafluorobutyl)-[1,2,4]triazolo[1,5-a]pynizin-6-yl)-5H-pyrrolo[2,3-d]pyrimidin-6(7H)-one]	14.7	–
CC(C)n1cc(C2(C)C(=O)Nc3nc(-c4cn5ncnc5c(CCC(F)(F)C(F)(F)F)n4)nc(N)c32)nn1 (centres unmarked) [Example 20A, 4-amino-5-(1-isopropyl-1H-1,2,3-triazol-4-yl)-5-methyl-2-(8-(3,3,4,4,4-pentafluorobutyl)-[1,2,4]triazolo[1,5-a]pyrazin-6-yl)-5H-pyrrolo[2,3-d]pyrimidin-6(7H)-one]	176	–
CC1(c2ccc(F)cn2)C(=O)Nc2nc(-c3cn4ncnc4c(CCCC(F)(F)F)n3)nc(N)c21 (centres unmarked) [Example 22B, 4-amino-5-(5-fluoropyridin-2-yl)-5-methyl-2-(8-(4,4,4-trifluorobutyl)-[1,2,4]triazolo[1,5-a]pyrazin-6-yl)-5H-pyrrolo[2,3-d]pyrimidin-6(7H)-one]	38.3	–
C[C@@]1(c2ccc(F)cc2)C(=O)Nc2nc(-c3cn4ncnc4c(CCCC(F)(F)F)n3)nc(N)c21 [Example 23A, (S)-4-amino-5-(4-fluorophenyl)-5-mclhyl-2-(S-(4,4,4-trifluorobutyl)-[1,2,4]triazolo[1,5-a]pyrazin-6-yl)-5,7-dihydro-6H-pyrrolo[2,3-d]pyrimidin-6-one]	29.6	–
CC1(c2ccc(C(F)(F)F)cn2)C(=O)Nc2nc(-c3cn4ncnc4c(CCCC(F)(F)F)n3)nc(N)c21 (centres unmarked) [Example 25B, 4-amino-5-methyl-2-(8-(4,4,4-trifluorobutyl)-[1,2,4]triazolo[1,5-a]pyrazin-6-yl)-5-(5-(trifluoromethyl)pyridin-2-yl)-5H-pyrrolo[2,3-d]pyrimidin-6(7H)-one]	27	–
CC1(c2ccc(Cl)cn2)C(=O)Nc2nc(-c3cn4ncnc4c(CCCC(F)(F)F)n3)nc(N)c21 (centres unmarked) [Example 26A, 4-amino-5-(5-chloropyridin-2-yl)-5-methyl-2-(8-(4,4,4-trifluorobutyl)-[1,2,4]triazolo[1,5-a]pyrazin-6-yl)-5H-pyrrolo[2,3-d]pyriniidin-6(7H)-one]	27.8	–

The remaining compounds from weak to strong by EC50, led by results:

EC50 [nM]	Emax (read-out: % Act. (percent activation relative to maximum cGMP production of Compound A = 100%)) [%]	SMILES
316	–	Nc1nc(-c2cn3ncnc3c(CCC(F)(F)C(F)(F)F)n2)nc2c1C(c1ccc(C(F)(F)F)cn1)(C1CC1)C(=O)N2 (centres unmarked) [Example 15A, 4-amino-5-cyclopropyl-2-(8-(3,3,4,4,4-pentafluorobutyl)-[1,2,4]triazolo[1,5-a]pyrazin-6-yl)-5-(5-(trifluoromethyl)pyridin-2-yl)-5H-pyrrolo[2,3-d]pyrimidin-6(7H)-one]
80.6	–	CC1(c2ccc(C3CC3)nc2)C(=O)Nc2nc(-c3cn4ncnc4c(CCC(F)(F)C(F)(F)F)n3)nc(N)c21 (centres unmarked) [Example 13B, 4-amino-5-(6-cyclopropylpyridin-3-yl)-5-methyl-2-(8-(3,3,4,4,4-pentafluorobutyl)-[1,2,4]triazolo[1,5-a]pyrazin-6-yl)-5H-pyrrolo[2,3-d]pyrimidin-6(7H)-one]
63	–	CC1(c2cncc(F)c2)C(=O)Nc2nc(-c3cn4ncnc4c(CCC(F)(F)C(F)(F)F)n3)nc(N)c21 (centres unmarked) [Example 9A, 4-amino-5-(5-fluoropyridin-3-yl)-5-methyl-2-(8-(3,3,4,4,4-pentafluorobutyl)-[1,2,4]triazolo[1,5-a]pyrazin-6-yl)-5H-pyrrolo[2,3-d]pyrimidin-6(7H)-one]
38.6	–	CC1(c2ccc(C#N)cn2)C(=O)Nc2nc(-c3cn4ncnc4c(CCC(F)(F)C(F)(F)F)n3)nc(N)c21 (centres unmarked) [Example 18A, 6-(4-amino-5-methyl-6-oxo-2-(8-(3,3,4,4,4-pentafluorobutyl)-[1,2,4]triazolo[1,5-a]pyrazin-6-yl)-6,7-dihydro-5H-pyrrolo[2,3-d]pyrimidin-5-yl)nicotinonitrile]
27.1	–	CC1(c2ccc(C(F)(F)F)cc2)C(=O)Nc2nc(-c3cn4ncnc4c(CCCC(F)(F)F)n3)nc(N)c21 (centres unmarked) [Example 24B, 4-amino-5-methyl-2-(8-(4,4,4-trifluorobutyl)-[1,2,4]triazolo[1,5-a]pyrazin-6-yl)-5-(4-(trifluoromethyl)phenyl)-5H-pyrrolo[2,3-d]pyrimidin-6(7H)-one]
25.2	–	CC1(c2ccccn2)C(=O)Nc2nc(-c3cn4ncnc4c(CCC(F)(F)C(F)(F)F)n3)nc(N)c21 (centres unmarked) [Example 11B, 4-amino-5-methyl-2-(8-(3,3,4,4,4-pentafluorobutyl)-[1,2,4]triazolo[1,5-a]pyrazin-6-yl)-5-(pyridin-2-yl)-5H-pyrrolo[2,3-d]pyrimidin-6(7H)-one]
15.8	–	CC1(c2ccc(Cl)cc2)C(=O)Nc2nc(-c3cn4ncnc4c(CCC(F)(F)C(F)(F)F)n3)nc(N)c21 (centres unmarked) [Example 10A, 4-amino-5-(4-chlorophenyl)-5-methyl-2-(8-(3,3,4,4,4-pentafluorobutyl)-[1,2,4]triazolo[1,5-a]pyrazin-6-yl)-5H-pyrrolo[2,3-d]pyrimidin-6(7H)-one]
11.1	–	CC1(c2ccccc2)C(=O)Nc2nc(-c3cn4ncnc4c(CCC(F)(F)C(F)(F)F)n3)nc(N)c21 (centres unmarked) [Example 12B, 4-amino-5-methyl-2-(8-(3,3,4,4,4-pentafluorobutyl)-[1,2,4]triazolo[1,5-a]pyrazin-6-yl)-5-phenyl-5H-pyrrolo[2,3-d]pyrimidin-6(7H)-one]
